{
  "source": "patent US20100041630A1",
  "about": "“Methods for Treating or Preventing Inflammation Using a Glycerophosphate Salt” (PRELIEF INC., priority 2007, published 2010)",
  "test_system": "rats with inflammatory condition associated with polyarthritis",
  "assay": "Therapeutic effectiveness in rats with polyarthritis induced by heat-killed Mycobacterium tuberculosis",
  "format": "in vivo",
  "details": "therapeutically effective amount, injection 1 to 5 times a day for 3-10 days, polyarthritic rats",
  "data": [
    {"substance": "calcium glycerophosphate [CGP]", "values": [
      {"measurement": "reduction of the overall arthritis score", "result": "at least 20%"}
    ]}
  ]
}
